In brackets after ≈: the same amount, converted by molar mass.
How the values were obtained:
[1] = test system: E. coli strain AR13438; assay: MIC by agar dilution, clinical isolate AR13438; type: cell-based, Escherichia coli; settings: for Antimicrobial susceptibility category: AR13438, CLSI breakpoints (M100, 31st edition); for MIC: Escherichia coli, AR13438, clinical E. coli isolate (blaCMY-178, blaTEM-1, blaCTX-M-27), agar dilution
Procedure: (§1) Antimicrobial susceptibility testing was performed and interpreted according to the Clinical and Laboratory Standards Institute (CLSI) guidelines and breakpoints (M100, 31st edition) by the agar dilution method. E. coli ATCC 25922 and K. pneumoniae ATCC 700603 served as control strains.
(§2) The antibiotics we used included meropenem (Hanhui Pharmaceutical Co., Ltd., China), imipenem (Merck Sharp & Dohme Corp., USA), cefepime (Jiangsu Hengrui Pharmaceutical Co., Ltd., China), piperacillin (Suzhou Erye Pharmaceutical Co., Ltd., China), ceftazidime (Guangdong Jincheng Jinsu Pharmaceutical Co., Ltd., China), tazobactam (Meilunbio, China), avibactam (MedChemExpress, USA), aztreonam (Sigma-Aldrich, USA), amikacin (Meilunbio), cefuroxime (Esseti Farmaceutici S.r.l., Italy), fosfomycin (Harbin Pharmaceutical Group Co., Ltd. China), levofloxacin (Daiichi Sankyo Company Limited, Beijing, China), and cefotaxime (North China Pharmaceutical Hebei Huamin Pharmaceutical Co., Ltd., China).

[2] = test system: K. pneumoniae isolate KPCZA02; assay: microbe, parasite or virus in culture; type: cell-based; settings: Klebsiella pneumoniae
Procedure: as §1

[3] = test system: E. coli DH5α; assay: MIC by agar dilution, E. coli DH5α; type: cell-based; settings: Escherichia coli
Procedure: as §1, §2

[4] = test system: E. coli DH5α-pCR2.1; assay: MIC by agar dilution, DH5α with blank vector pCR2.1; type: cell-based; settings: Escherichia coli
Procedure: as §1, §2
(§3) The blaCMY cloning was performed using a TA cloning kit (Invitrogen, Shanghai, China). The blaCMY-178 gene combined with its predicted promoter was amplified from isolate AR13438. Then, the blaCMY-178 gene was cloned into the linearized vector pCR2.1 using T4 DNA ligase (Invitrogen). The blaCMY-172 gene was cloned from KPCZA02 with the same method. The resulting plasmids were chemically transformed into E. coli DH5α. The positive transformants were identified by blue-white screening in MH agar containing 50 μg/mL kanamycin and were further confirmed by Sanger sequencing. The pCR2.1 blank vector was also transformed into E. coli DH5α as a control. The primers used for cloning were CMY-F and CMY-R (see Table S2 in the supplemental material). Relative CMY expression was measured by reverse transcription-quantitative PCR as described previously ([34]). Specific quantitative PCR (qPCR) primers (q-recA-F/R and q-CMY-F/R) were designed (Table S2).

[5] = test system: E. coli DH5α-pCR2.1-CMY-172; assay: MIC by agar dilution, transformant containing blaCMY-172; type: cell-based; settings: Escherichia coli
Procedure: as §1, §2, §3

[6] = test system: E. coli J53; assay: MIC by agar dilution, recipient E. coli J53; type: cell-based; settings: Escherichia coli
Procedure: as §1, §2
(§4) Conjugation experiments were performed by filter mating using sodium-azide-resistant E. coli J53 as the recipient, as described previously. Transconjugants were selected with MH agar containing 100 μg/mL sodium azide and 4 μg/mL ceftazidime-avibactam; furthermore, transconjugants were named J53-AR13438 and J53-KPCZA02, respectively. We compared genomes of AR13438 and J53 to select a unique gene (gtrA) to J53. The blaCMY-178-postive transconjugants were confirmed by PCR and MALDI-TOF MS (see Fig. S9 in the supplemental material). The primers used for PCR were gtrA-F, gtrA-R, CMY-F, and CMY-R (Table S1). The transfer frequencies were calculated as the number of transconjugants (CFU/mL) divided by the number of recipients (CFU/mL). Donors and recipients were mixed at 1:1 for the transfer frequency experiment. S1-PFGE and Southern blotting were performed to define the location of blaCMY-178 and confirm the transmission of the plasmid as described previously ([35]). The MIC profiles of transconjugants were also determined by the agar dilution method.

[7] = test system: E. coli J53-AR13438; assay: MIC by agar dilution, conjugant containing pAR13438_2; type: cell-based; settings: Escherichia coli, J53AR13438, E. coli J53-AR13438 (blaCMY-178)
Procedure: as §1
as §4, with “The blaCMY-178-postive transconjugants were confirmed by PCR and MALDI-TOF MS (see Fig. S9 in the supplemental material).” left out

[8] = test system: E. coli J53-KPCZA02; assay: MIC by agar dilution, conjugant containing pKPCZA02_4; type: cell-based; settings: Escherichia coli, J53KPCZA02, E. coli J53-KPCZA02 (blaCMY-172)
Procedure: as §1
as §4, with “The blaCMY-178-postive transconjugants were confirmed by PCR and MALDI-TOF MS (see Fig. S9 in the supplemental material).” left out

[9] = test system: E. coli DH5α-pCR2.1-CMY-2; assay: MIC by agar dilution, transformant containing blaCMY-2; type: cell-based; settings: Escherichia coli
[10] = test system: E. coli DH5α-pCR2.1-CMY-178; assay: MIC by agar dilution, transformant containing blaCMY-178; type: cell-based, Escherichia coli; settings: for MIC: Escherichia coli, E. coli DH5α-pCR2.1-CMY-178, agar dilution; for Increase of MIC by blaCMY-178 compared with blaCMY-172: transformants in E. coli DH5α
Procedure: as §1, §2, §3

Q: How did the Antimicrobial susceptibility category [1] turn out when `NCC[C@H](O)C(=O)N[C@@H]1C[C@H](N)[C@@H](O[C@H]2O[C@H](CN)[C@@H](O)[C@H](O)[C@H]2O)[C@H](O)[C@H]1O[C@H]1O[C@H](CO)[C@@H](O)[C@H](N)[C@H]1O` [AMK, amikacin] was run?
A: The Antimicrobial susceptibility category was “resistant”.

Q: What about the MIC [1] of the same compound?
A: Its MIC is > 256 µg/mL.

Q: And the MIC [2]?
A: Its MIC is > 256 µg/mL.

Q: And the MIC [3]?
A: The MIC was 1 µg/mL (≈ 1.71 µM).

Q: What about the MIC [4] of the same compound?
A: The MIC was 1 µg/mL (≈ 1.71 µM).

Q: And the MIC [5]?
A: The MIC was 2 µg/mL (≈ 3.42 µM).

Q: What about the MIC [6] of the same compound?
A: Its MIC is 2 µg/mL (≈ 3.42 µM).

Q: What about the MIC [7] of the same compound?
A: The MIC was 2 µg/mL (≈ 3.42 µM).

Q: What about the MIC [8] of the same compound?
A: Its MIC is 2 µg/mL (≈ 3.42 µM).

Q: What does the source list for `C[C@H]1[C@H](NC(=O)/C(=N\OC(C)(C)C(=O)O)c2csc(N)n2)C(=O)N1S(=O)(=O)O` [ATM, aztreonam]?
A: MIC [1]: 32 µg/mL (≈ 73.5 µM); MIC [3]: 0.06 µg/mL (≈ 0.138 µM); MIC [4]: 0.12 µg/mL (≈ 0.276 µM); MIC [9]: 32 µg/mL (≈ 73.5 µM); MIC [10]: 32 µg/mL (≈ 73.5 µM); Increase of MIC by blaCMY-178 compared with blaCMY-172 [10]: 4 fold; MIC [5]: 8 µg/mL (≈ 18.4 µM); MIC [6]: 0.12 µg/mL (≈ 0.276 µM); MIC [7]: 32 µg/mL (≈ 73.5 µM)

Q: With `CC(C)(O/N=C(\C(=O)N[C@@H]1C(=O)N2C(C(=O)[O-])=C(C[N+]3(CCNC(=O)c4ccc(O)c(O)c4Cl)CCCC3)CS[C@H]12)c1csc(N)n1)C(=O)O` [CFDC, cefiderocol] as the compound, how does the Antimicrobial susceptibility category [1] read?
A: The Antimicrobial susceptibility category was “susceptible”.

Q: What about the MIC [1] of the same compound?
A: Its MIC is 0.25 µg/mL (≈ 0.332 µM).

Q: And the MIC [2]?
A: Its MIC is 1 µg/mL (≈ 1.33 µM).

Q: What about the MIC [3] of the same compound?
A: Its MIC is < 0.03 µg/mL.

Q: What about the MIC [4] of the same compound?
A: Its MIC is < 0.03 µg/mL.

Q: And the MIC [9]?
A: The MIC was 0.125 µg/mL (≈ 0.166 µM).

Q: And the MIC [10]?
A: The MIC was 1 µg/mL (≈ 1.33 µM).

Q: And the MIC [5]?
A: Its MIC is 1 µg/mL (≈ 1.33 µM).

Q: `CO/N=C(\C(=O)N[C@@H]1C(=O)N2C(C(=O)O)=C(COC(C)=O)CS[C@H]12)c1csc(N)n1` [CTX, cefotaxime] was tested. Which MIC [1] did it give?
A: The MIC was > 128 µg/mL.

Q: And the MIC [2]?
A: The MIC was > 128 µg/mL.

Q: What about the MIC [3] of the same compound?
A: Its MIC is 0.03 µg/mL (≈ 0.0659 µM).

Q: And the MIC [4]?
A: Its MIC is 0.06 µg/mL (≈ 0.132 µM).

Q: What about the MIC [9] of the same compound?
A: Its MIC is 32 µg/mL (≈ 70.3 µM).

Q: What about the MIC [10] of the same compound?
A: The MIC was 128 µg/mL (≈ 281 µM).

Q: And the “Increase of MIC by blaCMY-178 compared with blaCMY-172” value (“Increase of MIC” for short) [10]?
A: Its value is 4 fold.

Q: And the MIC [5]?
A: Its MIC is 32 µg/mL (≈ 70.3 µM).

Q: What about the MIC [6] of the same compound?
A: The MIC was 0.06 µg/mL (≈ 0.132 µM).

Q: And the MIC [7]?
A: Its MIC is 32 µg/mL (≈ 70.3 µM).

Q: And the MIC [8]?
A: The MIC was 16 µg/mL (≈ 35.1 µM).

Q: `CO/N=C(\C(=O)N[C@@H]1C(=O)N2C(C(=O)O)=C(COC(N)=O)CS[C@H]12)c1ccco1` [CXM, cefuroxime] was tested. Which MIC [1] did it give?
A: Its MIC is > 1020 µg/mL.

Q: And the MIC [2]?
A: Its MIC is > 1020 µg/mL.

Q: And the MIC [3]?
A: The MIC was 4 µg/mL (≈ 9.43 µM).

Q: And the MIC [4]?
A: The MIC was 4 µg/mL (≈ 9.43 µM).

Q: And the MIC [9]?
A: The MIC was 128 µg/mL (≈ 302 µM).

Q: What about the MIC [10] of the same compound?
A: The MIC was 1020 µg/mL (≈ 2410 µM).

Q: And the “Increase of MIC” value [10]?
A: The value was “over 4 fold”.

Q: What about the MIC [5] of the same compound?
A: Its MIC is 64 µg/mL (≈ 151 µM).

Q: What about the MIC [6] of the same compound?
A: Its MIC is 16 µg/mL (≈ 37.7 µM).

Q: And the MIC [7]?
A: Its MIC is 256 µg/mL (≈ 603 µM).

Q: What about the MIC [8] of the same compound?
A: The MIC was 256 µg/mL (≈ 603 µM).

Q: Which MIC [1] does the source give for `CO/N=C(\C(=O)N[C@@H]1C(=O)N2C(C(=O)[O-])=C(C[N+]3(C)CCCC3)CS[C@H]12)c1csc(N)n1` [FEP, cefepime] here?
A: Its MIC is 128 µg/mL (≈ 266 µM).

Q: What about the MIC [2] of the same compound?
A: Its MIC is > 128 µg/mL.

Q: And the MIC [3]?
A: The MIC was 0.06 µg/mL (≈ 0.125 µM).

Q: What about the MIC [4] of the same compound?
A: The MIC was 0.12 µg/mL (≈ 0.25 µM).

Q: And the MIC [9]?
A: The MIC was 2 µg/mL (≈ 4.16 µM).

Q: What about the MIC [10] of the same compound?
A: Its MIC is 64 µg/mL (≈ 133 µM).

Q: What about the “Increase of MIC” value [10] of the same compound?
A: The value was 4 fold.

Q: What about the MIC [5] of the same compound?
A: Its MIC is 16 µg/mL (≈ 33.3 µM).

Q: And the MIC [6]?
A: Its MIC is 0.06 µg/mL (≈ 0.125 µM).

Q: And the MIC [7]?
A: The MIC was 32 µg/mL (≈ 66.6 µM).

Q: And the MIC [8]?
A: Its MIC is 32 µg/mL (≈ 66.6 µM).
